The source of these data is US10066190B2, “Mild liquid detergent formulations” (Henkel IP & Holding GmbH, priority 2016, dated 2018).

This series concerns human stratum corneum. Nature of the series: Corneosurfametry test. The text has this:
Another method to measure the skin irritancy potential is corneosurfametry (CSM) test, a noninvasive quantitative test that measures the interaction between surfactants and human stratum corneum. ([…] et al., Dermatology 189: 152-156 (1994)). Corneosurfametry involves removing a few layers of skin using cyanoacrylate skin surface strippings, short contact time with surfactants followed by staining the samples with fuchian dyes. A […] barrier allows greater penetration of the stain, therefore giving a more intense color, which is measured using colorimetrically with L*a*b* color space. This method is predictive of both protein and lipid damage in the skin. CIM (Color Indicator of Mildness) values are obtained from a corneosurfametry test. In a comparative study, the higher the CIM value, the milder the surfactant formulation. The test surfactant solution can be a solution with 3% active surfactant, or a 10% dilution of a surfactant formulation/product which has a total surfactant concentration of about 10%-25%. Corneosurfametry involves removing a few layers of human skin from the volar forearm of healthy adults using skin surface strippings. The skin was collected with D-Squame tapes (for tests with neutral pH formulas) and with Book tape (for tests with high pH formulas). […] Once the tapes are dry, they were analyzed with spectrophotometer. […]

With `CCCCCCCCCCCCOS(=O)(=O)[O-].[Na+]` [1% SDS, SDS], the CIM is 36.84.
